What is called melting point is the temperature, or range, at which the solid turns liquid.

Among the data in a melting point compilation (Tetko et al.; mined from patent text by program, amines drawn as free bases though some values may be those of a salt) are melting point values, retold here.

Bounds are passed on as bounds.

In the case of `CC(=O)N(C(C)=O)c1cc2c(c(N(C(C)=O)C(C)=O)c1)OC(C(Cl)(Cl)Cl)OC2C(Cl)(Cl)Cl` (centres undefined), the melting point fell in the range of 182 to 183 °C.
For `Brc1cccc(C2Cc3cnc(Nc4ccc(CCN5CCOCC5)cc4)nc3-c3ccccc32)c1` (centres undefined) the value was 86 to 88 °C.
In the case of `CNS(=O)(=O)c1cc(C(=O)O)cc(N)c1Oc1ccccc1`, the melting point turned out to be 283 °C.
For `COc1cc(C)nc(NC(=O)NS(=O)(=O)c2ccccc2OC(F)(F)F)n1` the value was 162 °C; for `Cc1sc(-c2ccccc2)nc1COc1ccc(COc2ncccc2C#N)cc1`, 120 to 121 °C; for `COc1nc(NC(C)C)nc(NC2CC2)n1`, 77 to 80 °C.
In the case of `CC(C)(C)c1ccc(C=O)cc1NC(=O)CC1c2ccccc2Oc2ccccc21` it was 172 to 174 °C; in that of `Cc1c(CN2CCC(c3c(Cl)cccc3Cl)CC2)[nH]c2ccccc12`, 139 to 141 °C; in that of `COC(=O)C(C)(C)N1CCC(N(Cc2ccc(-c3ccc(C(F)(F)F)cc3)cc2)C(=O)Cn2c(CCc3cccc(F)c3F)nc(=O)c3cccnc32)CC1`, 150 °C.
For `N#CC1c2ccccc2-c2ccccc21` the value was 152 to 154 °C.
For the compound `CCN1c2ncc([N+](=O)[O-])cc2C(=O)N(C)c2cccnc21`, the melting point lay in the range of 148 to 149 °C.
In the case of `O=C(O)CCCCCc1ccc(O)c(O)c1` it was 109 °C; in that of `CCCCc1nc(Cl)c(COC)n1Cc1ccc(C(=O)O)cc1`, 126 to 128 °C; in that of `COC(=O)c1cccc2c1C(Cc1ccncc1)(Cc1ccnc(F)c1)c1ccccc1-2` (centres undefined), 144 to 146 °C.
`COc1ccc2oc3ccccc3c(=O)c2c1` displayed a melting point of 128 to 130 °C.
For `CC(=O)Nc1cccc(C(=O)NC(C)(C)C)c1` the value was 194 to 195 °C; for `N[C@@H]1CCCN([C@@H]2Cc3ccccc3[C@H]2Oc2cc3c(cc2Cl)NC(=O)CC3)C1`, 184 °C; for `CCOc1ccc(-n2c(NCc3ccc(Cl)cc3)nc3ccc(Cl)cc32)cc1`, 135 to 136 °C.
As for `Cc1c(I)sc(I)c1Br`, the melting point fell in the range of 81 to 82 °C.
In the case of `COc1ccc(C(=O)Oc2cc(OCCO/N=C/c3ccc(C(C)(C)C)cc3)ccc2C(=O)O)cc1` it was 116 to 118 °C; in that of `O=C(c1ccccc1CBr)c1ccccc1CBr`, 113 to 114 °C.
In turn, `FC(F)(F)Oc1cccc(CN2CCC(Nc3nnc(C(F)(F)F)s3)CC2)c1` showed a melting point of 116 °C.
For `Cc1c(C(=O)Nc2ccc(N3CCN(CCCc4cccnc4)CC3)c(C#N)c2)cnn1-c1ccc(Cl)cc1` the value was 201 to 203 °C; for `CC(C)(C)C(=O)OCn1nc2ccc(NCCCN3CCC(OC(c4ccccc4)c4ccccc4)CC3)nn2c1=O`, 168 to 171 °C; for `Cc1cc(NCCO)c2nn(-c3ccccc3)c(C)c2n1`, 159 to 161 °C.
In the case of `O=C(Cl)c1cc2n(c1)CCc1ccccc1C2=O` it was 147 °C.
Compound `O=C(Cn1ncc(-c2ccccc2)c1-c1ccccc1)NCCN1CCCCC1` gave a melting point of 95 to 97 °C.
`CCCCCN=C1SC(=CC(=O)O)C(=O)N1CCCCC` gave a melting point of 85 to 88 °C.
In the case of `CN1CN(C)C(=O)N(C)C1=O` it was 88 to 90 °C; in that of `Cc1ccc(C=CC(=O)N2CCc3c([nH]c4ccccc34)C2c2ccc3c(c2)OCO3)cc1` (centres undefined), 240 °C; in that of `Cc1cc(Cl)cc(Cl)c1OC(=O)c1ccc(CCl)cc1`, 74 to 75 °C.
Compound `Cc1ccc(C=CC(=O)NNC(=O)C=Cc2ccc(C)cc2)cc1` showed a melting point of 307 °C.
For `Cc1ccc(S(=O)(=O)Oc2ccc(NC(=O)NCCCl)cc2)cc1` the value was 149 to 150 °C; for `CC1(C)CCC(C)(C)c2cc(C(=O)Nc3ccc(OCCN4CCOCC4)cc3)ccc21`, 134 to 136 °C; for `COc1ccc(-c2[nH]c3ccccc3c(=O)c2Cc2ccncc2)cc1`, 246 to 248 °C.
In the case of `N#Cc1c[nH]c2cc3ccccc3cc2c1=O` it was > 260 °C; in that of `CC(=O)Nc1ccc(-c2cc3cccc(C(=O)OCCN4CCCCC4)c3o2)cc1`, 155 to 157 °C.
`COCc1nsc2ccc(-n3c(=O)cc(C(F)(F)F)n(C)c3=O)cc12` displayed a melting point of 161 to 163 °C.
In the case of `COC(=O)C(Cl)=Cc1cccc([N+](=O)[O-])c1Cl` it was 110 to 112 °C; in that of `OCc1cc2c(Oc3ccc(Cl)cc3)cncc2s1`, 90 to 91 °C.
In the case of `N#Cc1c(-c2ccccc2)cc(Cl)nc1Cl` it was 167 to 169 °C; in that of `CC(=O)OCc1ccc(C=O)cc1`, 32 °C.
`Nc1nc(-c2ccc(Cl)cc2)c(CCC(=O)O)s1` displayed a melting point of 116 to 118 °C.
For the compound `CC(=O)C1CCC2C3CCC4CC(O)C(N5CCOC(C)(C)C5)CC4(C)C3C(O)CC12C` (centres undefined), the melting point was in the range of 182 to 185 °C.
`CN(C)CCCNc1c(-c2ccccc2)c(=O)[nH]c2cc(Cl)ccc12` returned a melting point of 177 to 179 °C.
For `COc1cc(OC)c(NC2=Nc3ccccc3CS2)cc1Cl` the value was 157 to 158 °C; for `CC(=NNC(N)=O)c1ccc2nnn(Cc3ccc4ncccc4c3)c2n1`, 249 to 250 °C; for `CC(C)c1ccc(CCCN(C)[C@H]2CC[C@H](c3ccc4[nH]c(=O)oc4c3)CC2)cc1`, 179 to 181 °C.
For `O=C(O)c1cccc2cc(-c3ccc(Cl)cc3)oc12` the value was 228 to 230 °C; for `CCOc1cc(NC(=S)NS(=O)(=O)c2ccc(C)cc2)ccn1`, 152 to 153 °C.
On to `COc1ccc(C2COC(c3c(F)cccc3Cl)=N2)cc1-c1ccccc1` (centres undefined), for which the melting point fell in the range of 80.5 to 82 °C.
In the case of `CC1(C)CCC(C)(C)c2cc(-c3cc(-c4ccc(C(=O)O)cc4)ccc3OCCCN)ccc21` it was 243 °C; in that of `CC(S)C(=O)Nc1ccc(C2=NNC(=O)CC2C)cc1` (centres undefined), 236 to 237 °C.
In the case of `CC1(C)C(C(=O)O)C1C(O)C(F)(Cl)Cl` (centres undefined) it was 142 °C; in that of `O=C(C1CCN(S(=O)(=O)c2ccc(Cl)cc2)CC1)N1CCN(c2ccncn2)CC1`, 125 to 128 °C; in that of `O=C(/C=C/C=C/c1ccccc1)NCCCOc1ccc(CC(=O)NO)cc1`, 198 to 201 °C.
In the case of `COc1ccc(SC(C(=O)NO)c2ccccc2)cc1` (centres undefined) it was 155 °C; in that of `Cc1cc(F)ccc1-c1ccc(S(=O)(=O)N2c3ccccc3CC2C(=O)NCc2ccccc2[N+](=O)[O-])cc1` (centres undefined), 64 to 66 °C.
As for `O=C1N(Cc2nccnc2C(F)(F)F)c2ccccc2C12COc1cc3c(cc12)OCCO3` (centres undefined), the melting point was 230 to 232 °C.
For `NS(=O)(=O)c1cc2c(c(Cl)c1Cl)OC(CCl)C2` (centres undefined) the value was 195 to 196 °C; for `Cc1cccc(SCC(=O)C23CC4CC(CC(C4)C2)C3)n1`, 116 °C; for `O=[N+]([O-])c1ccc2c(c1)S(=O)(=O)NCN2C1CC1`, 198 to 201 °C.
In the case of `COC(=O)c1ccc(Br)c(S(C)(=O)=O)c1` it was 148 to 149 °C; in that of `O=[N+]([O-])c1cc(C(F)(F)F)ccc1Sc1ccc(O)cc1`, 131 to 134 °C.
In the case of `Cc1cccc(C)c1N1CCCCS/C1=N/N=C\c1ccc(-c2ncn(-c3ccc(OC(F)(F)F)cc3)n2)cc1` it was 100 to 106 °C.
On to `CCCCCCC(C(=O)OCC)n1cnc2c([N+](=O)[O-])cccc21` (centres undefined), for which the melting point lay in the range of 86 to 89 °C.
In the case of `FC1(F)CCC(n2ncc3c(Br)cncc32)CC1` it was 172 to 173 °C.
In the case of `CCOC(C)c1cc(C(=O)OC)c(N)cc1C(F)(F)F` (centres undefined) it was 100 to 103 °C; in that of `Nc1nc(-c2ccc(Cl)cc2C(=O)c2ccccc2)c(CN2C(=O)c3ccccc3C2=O)s1`, 253 to 255 °C; in that of `CC(C)(O)CNCCN(C1CCNCC1)S(=O)(=O)c1ccc(Nc2nccc(Nc3ccc(F)cc3)n2)cc1`, 120 °C.
The compound `COc1ccc(-c2cc3ccccc3o2)cc1` had a melting point of 145 to 147 °C.
For `N#Cc1ccc(OCCCOc2cccc(-c3cc4cc(C#N)ccc4o3)c2)cc1` the value was 157 to 158 °C; for `CCCOC(=O)c1ccc(OC(=O)CCCC(=O)Oc2ccc(C(=O)OCCC)cc2)cc1`, 74 to 75 °C; for `Oc1cc2c(c(Cl)c1Cl)C(O)C(C1CCCC1)C2` (centres undefined), 158 to 160 °C.
Turning to `CC(C)CC(NC(=O)C(Cc1c[nH]c2ccccc12)NC(=O)OC(C)(C)C)C(=O)NCCC(=O)CCl` (centres undefined), the melting point lay in the range of 79 to 81 °C.
On to `COC(=O)C(C)(C)Cc1[nH]c2cc(OC)ccc2c1SC(C)(C)C`, for which the melting point came out at 133 °C.
In the case of `CS(=O)C=C1C(C)(C)CCC1(C)C` (centres undefined) it was 74.7 °C; in that of `CC(C)c1cc(C(C)C)c(C(O)C(=O)c2ccc(C(C)C)c(OS(N)(=O)=O)c2C(C)C)c(C(C)C)c1` (centres undefined), 96 to 101 °C; in that of `CCCCCCCCCCCCCCc1ccc(OCC2COC(C)(C)O2)c(CC)c1` (centres undefined), 34 to 38 °C.
`CCCCCc1cc2c(nc(O)n2CCCCS(C)(=O)=O)c(N)n1` gave a melting point of 188 to 189 °C.
For `O=Cc1ccc(Oc2ccc([N+](=O)[O-])cc2)cc1` the value was 101 to 104 °C; for `Fc1ccc2c(c1)Cc1sc(NCCCN3CCOCC3)nc1-2`, 113 to 115 °C.
For `COC(=O)CCC/C=C(\c1cc(F)cc(C(F)(F)F)c1)c1cc(C)c2on(C)c(=O)c2c1` the value was 97.5 to 98.5 °C; for `COc1c(C=O)c(=O)n(C)c(=O)n1C`, 105 to 107 °C.
For `O=C(O)c1cc2cc3c(cc2c2cc(OCc4ccccc4)ccc12)OCO3` the value was 263 to 265 °C; for `CC(C)C[C@H](NC(=O)N1CCCCCC1)C(=O)O`, 88 to 89 °C.
Compound `Oc1ccc2c(c1)C13CCN(CC4CC4)C(C2)C1OCOC3` (centres undefined) came in with a melting point of 193 to 196 °C.
For `COC(=O)c1ccc(-c2cc[nH]n2)cc1Cl` the value was 130 to 131 °C; for `CCN1CCCC1CNC(=O)c1cc(NS(N)(=O)=O)c(C)cc1OC` (centres undefined), 140 to 141 °C.
